The source made the active and inactive calls. No cut-off for these calls is given here.
Tests used:
[1] = target: T1, Trace amine-associated receptor 5 (Mus musculus, UniProt Q5QD14); test: Agonist activity at mouse TAAR5 expressed in HEK293 cells assessed as cAMP accumulation after 20 mins by BRET assay; format: functional, cell-based
T1 sequence (Q5QD14 whole entry): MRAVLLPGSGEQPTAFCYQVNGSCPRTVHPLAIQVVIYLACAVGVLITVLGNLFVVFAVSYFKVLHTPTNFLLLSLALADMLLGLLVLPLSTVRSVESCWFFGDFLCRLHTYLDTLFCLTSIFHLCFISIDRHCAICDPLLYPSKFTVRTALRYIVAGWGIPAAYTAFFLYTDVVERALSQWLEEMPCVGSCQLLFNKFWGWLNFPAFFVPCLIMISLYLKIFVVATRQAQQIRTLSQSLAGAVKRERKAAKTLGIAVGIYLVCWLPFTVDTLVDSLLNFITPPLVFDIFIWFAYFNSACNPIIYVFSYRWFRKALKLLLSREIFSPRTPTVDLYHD

[2] = target: Trace amine-associated receptor 1 (Mus musculus) (UniProt Q923Y8); test: Agonist activity at mouse TAAR1 expressed in HEK293 cells assessed as cAMP accumulation at 10 uM after 20 mins by BRET assay relative to beta-PEA; format: functional, cell-based
Chain of Trace amine-associated receptor 1 (Mus musculus) (Q923Y8 whole entry): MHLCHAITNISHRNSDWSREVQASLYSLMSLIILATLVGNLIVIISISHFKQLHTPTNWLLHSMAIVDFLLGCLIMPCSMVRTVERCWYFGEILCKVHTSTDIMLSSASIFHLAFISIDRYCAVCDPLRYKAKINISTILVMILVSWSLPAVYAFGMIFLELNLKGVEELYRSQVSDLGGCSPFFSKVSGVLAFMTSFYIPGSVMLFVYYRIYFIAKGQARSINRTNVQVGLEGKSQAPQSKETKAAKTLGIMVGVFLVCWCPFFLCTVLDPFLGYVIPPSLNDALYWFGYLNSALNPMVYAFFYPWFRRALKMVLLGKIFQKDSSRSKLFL

[3] = target: T2, Trace amine-associated receptor 1 (Homo sapiens) (UniProt Q96RJ0); test: Agonist activity at human TAAR1 expressed in HEK293 cells assessed as cAMP accumulation at 10 uM after 20 mins by BRET assay relative to beta-PEA; format: functional, cell-based
T2 sequence (whole entry): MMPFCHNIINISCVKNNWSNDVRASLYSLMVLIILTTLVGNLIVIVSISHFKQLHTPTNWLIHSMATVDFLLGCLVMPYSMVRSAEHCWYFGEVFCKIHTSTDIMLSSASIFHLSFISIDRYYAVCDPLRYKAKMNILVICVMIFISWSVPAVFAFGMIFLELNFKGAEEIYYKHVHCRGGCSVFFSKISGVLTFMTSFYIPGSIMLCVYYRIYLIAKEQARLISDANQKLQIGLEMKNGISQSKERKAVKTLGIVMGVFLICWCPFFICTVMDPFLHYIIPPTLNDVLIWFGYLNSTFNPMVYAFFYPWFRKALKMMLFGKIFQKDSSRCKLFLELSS

[4] = target: T3, Trace amine-associated receptor 1 (Homo sapiens, UniProt Q96RJ0); test: Agonist activity at human TAAR1 expressed in HEK293 cells assessed as cAMP accumulation after 20 mins by BRET assay; format: functional, cell-based
T3 sequence (Q96RJ0 whole entry): T2 sequence (whole entry)

[5] = target: Trace amine-associated receptor 1 (Mus musculus, UniProt Q923Y8); test: Agonist activity at mouse TAAR1 expressed in HEK293 cells assessed as cAMP accumulation after 20 mins by BRET assay; format: functional, cell-based
Chain of Trace amine-associated receptor 1 (Mus musculus, UniProt Q923Y8) (Q923Y8 whole entry): as the sequence (Q923Y8 whole entry) above

[6] = Selectivity ratio of EC50 for human TAAR1 expressed in HEK293 cells to EC50 for mouse TAAR1 expressed in HEK293 cells; format: cell-based
[7] = target: T3, Trace amine-associated receptor 1; test: […] of full length recombinant human N-terminal HA-tagged/C-terminal FLAG-tagged TAAR1 expressed in CHOK1 cells assessed as increase in cAMP accumulation by AlphaScreen assay; format: functional, cell-based

| SMILES | EC50 [1] | Activity [2] | Activity [3] | EC50 [4] | EC50 [5] | Ratio EC50 [6] | Emax [2] | Emax [3] | EC50 [7] |
| --- | --- | --- | --- | --- | --- | --- | --- | --- | --- |
| NC(N)=N/C(N)=N/c1ccc([N+](=O)[O-])cc1 | > 10 µM | inactive | inactive |  |  |  |  |  |  |
| [H]/N=C(\N/C(=N/[H])Nc1ccc(Cl)cc1)NC(C)C [PROGUANIL] | > 10 µM |  |  | > 10 µM | 5.4 µM |  |  |  |  |
| NC(N)=N/C(N)=N/c1cccc(F)c1 | > 10 µM | inactive | inactive |  |  |  |  |  |  |
| N=C(N)NC(=N)Nc1ccccc1Cl | > 10 µM |  |  | 1 µM | 0.41 µM | 2.44 | > 85% | > 85% |  |
| CC1(C)N=C(N)N=C(N)N1c1ccc(Cl)cc1 [CYCLOGUANIL] | > 10 µM | inactive | inactive |  |  |  |  |  |  |
| Cc1ccc(NC(=N)N=C(N)N)cc1 | > 10 µM |  |  | > 10 µM | 1.7 µM | > 5.88 | > 85% | > 85% |  |
| N=C(N)NC(=N)NC12CC3CC(CC(C3)C1)C2 | > 10 µM | inactive | inactive |  |  |  |  |  |  |
| NC(N)=N/C(N)=N/C1CCCC1 | > 10 µM | inactive | inactive |  |  |  |  |  |  |
| COc1ccc(/N=C(\N)N=C(N)N)cc1 | > 10 µM | inactive | inactive |  |  |  |  |  |  |
| COc1ccc(C/N=C(\N)N=C(N)N)cc1OC | > 10 µM | inactive | inactive |  |  |  |  |  |  |
| NC(N)=N/C(N)=N/Cc1cccc(Cl)c1 | > 10 µM |  |  | 7 µM | 0.097 µM | 72.2 | > 85% | > 85% |  |
| COc1cc(Cc2cnc(N)nc2N)cc(OC)c1OC [TRIMETHOPRIM] | > 10 µM | inactive | inactive |  |  |  |  |  |  |
| N=C(N)NC(=N)Nc1ccccc1 [PHENYL BIGUANIDE] | > 10 µM | inactive | inactive |  |  |  |  |  |  |
| N=C(N)NC(=N)N1CCOCC1 |  | inactive | inactive |  |  |  |  |  |  |
| N=C(N)/N=C(\N)N1CCOCC1 [MOROXYDINE] | > 10 µM |  |  |  |  |  |  |  |  |
| NC(N)=N/C(N)=N/Cc1ccccc1Cl | > 10 µM |  |  | 3 µM | 0.41 µM | 7.31 | > 85% | > 85% |  |
| NC(N)=N/C(N)=N/C1CCCCCC1 | > 10 µM | inactive | inactive |  |  |  |  |  |  |
| N=C(N)NC(=N)Nc1cccc(Cl)c1 | > 10 µM | inactive | inactive |  |  |  |  |  |  |
| NCCc1ccc(Oc2ccc(O)cc2)c(I)c1 |  |  |  |  |  |  |  |  | 1.69 µM |
| N=C(N)NC(=N)Nc1ccc(Cl)cc1 [4-CHLOROPHENYLBIGUANIDE] | > 10 µM |  |  | > 10 µM | 2.1 µM | > 4.76 | > 85% | > 85% |  |
| NC(N)=N/C(N)=N/Cc1ccc(Cl)c(Cl)c1 | > 10 µM |  |  | 1.2 µM | 0.036 µM | 33.3 | > 85% | > 85% |  |
| N=C(N)NC(=N)Nc1ccc(Cl)c(Cl)c1 | > 10 µM | inactive | inactive |  |  |  |  |  |  |
| CCc1nc(N)nc(N)c1-c1ccc(Cl)cc1 [PYRIMETHAMINE] | > 10 µM | inactive | inactive |  |  |  |  |  |  |
| N=C(N)NC(=N)NCc1ccccc1 | > 10 µM |  |  | > 10 µM | 0.78 µM | > 12.8 | > 85% | > 85% |  |
| COc1ccc(CNC(=N)NC(=N)N)cc1 | > 10 µM | inactive | inactive |  |  |  |  |  |  |
| NC(N)=N/C(N)=N/Cc1cccc(F)c1 | > 10 µM |  |  | 1.6 µM | 0.54 µM | 2.96 | > 85% | > 85% |  |
| NC(N)=N/C(N)=N/Cc1ccc(Cl)cc1 | > 10 µM |  |  | 1.8 µM | 0.78 µM | 2.31 | > 85% | > 85% |  |
| CC(C)NC(=N)NC(=N)Nc1ccc(Cl)cc1 |  |  |  |  |  | > 1.85 | > 85% | > 85% |  |
| NC(N)=N/C(N)=N/Cc1cccc(Br)c1 | > 10 µM |  |  | 4.9 µM | 1.8 µM | 2.72 | > 85% | > 85% |  |
| NC1=NC2(CCCCC2)N(c2ccc(Cl)cc2)C(N)=N1 | > 10 µM | inactive | inactive |  |  |  |  |  |  |
